Measurements taken from patent US20120323164A1, “PHOTODYNAMIC THERAPY WITH PHTHALOCYANINES AND RADICAL SOURCES” (Case Western Reserve University, priority 2011, published 2012).

Experiments:
[1] = Photodecomposition of phthalocyanines in toluene under white light, no added radical source; conditions: for decomp (%): toluene ~9 μM, no added alkene, white light 1.2 kJ/s/m^2
Description: The distance between the cuvette face and the lamp filament was 30 cm. Determination of the beam intensity at the cuvette face was made with a powermeter (Powermax, pm10, Coherent, Santa Clara, Calif.). The beam intensity was checked before each measurement.
Solutions for the photodecomposition experiments were prepared as follows. […] This assumption was justified on the basis that all of the silicon phthalocyanines studied contained simple, unsubstituted phthalocyanine rings. The extinction coefficients of the aluminum phthalocyanines were assumed to be 2.3×10^5, the extinction coefficient of AlPcOSi(CH3)2(CH2)3N(CH3)2, Pc 1.
The absorbance of the Q band of the solution, A, was determined with a spectrophotometer (Lambda 25, Perkin Elmer, Shelton, Conn.; fused silica cuvettes, 1.00 cm, 3.5 mL, Fisher Scientific). From A, ε, the cuvette path length, b, and Beer's law, the concentration of the solution, c, was determined. The solution was then diluted with toluene to a concentration of 9.2 μM. To verify that this was the concentration of the solution, its absorbance was measured again.
In a typical determination, the solution (3.00 mL) was placed in a cuvette (1.00 cm, 3.5 mL, Fisher Scientific, Pittsburgh, Pa.) and its absorbance was measured with the spectrometer (Lambda 25) before irradiation and at 2, 4, 6 and 8 h.
where A0 is the absorbance of the solution at time 0, and At is the absorbance at time t.

[2] = Qualitative solubility in organic solvents
[3] = time 2 h, radiation 86 kJ/mol × 10^−6
[4] = time 4 h, radiation 172 kJ/mol × 10^−6
[5] = time 6 h, radiation 258 kJ/mol × 10^−6
[6] = time 8 h, radiation 344 kJ/mol × 10^−6

| Compound | decomp (%) ([1]; time 0 h) | decomp (%) [1, 3] [%] | decomp (%) [1, 4] [%] | decomp (%) [1, 5] [%] | decomp (%) [1, 6] [%] | solubility (in words) [2] | stability in the dark ([1]; in the dark) |
| --- | --- | --- | --- | --- | --- | --- | --- |
| CCCCC/C=C\C/C=C\CCCCCCCC(=O)O.CCCCC/C=C\C/C=C\CCCCCCCC(=O)O.CN(C)CCC[Si](C)(C)O[Si]1(O[Si](C)(C)CCCN(C)C)n2c3c4ccccc4c2N=C2N=C(N=c4c5ccccc5c(n41)=NC1=NC(=N3)c3ccccc31)c1ccccc12 [Pc 289, SiPc[OSi(CH3)2(CH2)3NH(CH3)2]2^2+ [OC(O)(CH2)6(CH2CH═CH)2(CH2)4CH3]2] | 0 | 18 | 19 | 20 | 21 | soluble in ethanol, CH2Cl2 and dimethylformamide, moderately soluble in toluene, and insoluble in hexanes |  |
| CCCCC/C=C\C/C=C\C/C=C\C/C=C\CCCC(=O)O.CCCCC/C=C\C/C=C\C/C=C\C/C=C\CCCC(=O)O.CN(C)CCC[Si](C)(C)O[Si]1(O[Si](C)(C)CCCN(C)C)n2c3c4ccccc4c2N=C2N=C(N=c4c5ccccc5c(n41)=NC1=NC(=N3)c3ccccc31)c1ccccc12 [Pc 291, SiPc[OSi(CH3)2(CH2)3NH(CH3)2]2^2+ [OC(O)(CH2)2(CH2CH═CH)4(CH2)4CH3]2] | 0 | 18 | 19 | 20 | 20 | soluble in ethanol, CH2Cl2 and dimethylformamide, moderately soluble in toluene, and insoluble in hexanes |  |
| SiPc[OC(O)(CH2)6(CH2CH═CH)2(CH2)4CH3]2 [Pc 296] | 0 | 2 | 3 | 4 | 5 | soluble in CH2Cl2, dimethylformamide, pyridine and toluene, slightly soluble in hexanes, and insoluble in methanol |  |
| SiPc[O(CH2CH═C(CH3)CH2)2CH2CH═C(CH3)2]2 [Pc 303] | 0 | 1 | 2 | 2 | 2 | soluble in CH2Cl2, dimethylformamide, pyridine and toluene, and insoluble in hexanes and methanol | stable in the dark |
